Counter-ions that a name gives are not always drawn.
System: platelet aggregation
Test: Ex vivo screening of oral GP IIb/IIIa inhibitors: inhibition of collagen-induced platelet aggregation in PRP after oral dosing in beagles
Settings: beagle dogs, 5 mpk, collagen agonist; for inhibition in vivo at 5 mg/kg: Canis lupus familiaris, Platelet, n = 2, 32 hours post-dosing, read-out: Percent inhibition of platelet aggregation at 32 hour post-dosing; for % inhibition of platelet aggregation @ 10 hours: n = 2, 10 hours post-dosing
Procedure: Beagles (8-13 kg, various sources) of either sex are dosed orally with compound in a gelatin capsule. Blood samples are drawn from the cephalic vein using a 23 ga infusion butterfly. Samples for platelet aggregation and drug concentration are taken prior to dosing and 0.5, 1, 2, 3, 5, 7 and 10 hours after dosing and periodically on subsequent days until inhibition of platelet aggregation is less than 30%. Animals are fasted, with ad lib access to water, overnight prior to dosing. For measurement of plasma concentration blood is drawn into a 3 ml tube containing 45 USP units of Na Heparin. Blood is centrifuged at 1700×g for 10 minutes, plasma is aspirated and frozen at -20° C. until analyzed by HPLC. For measurement of platelet aggregation, blood is drawn into 2 2.0 ml tubes containing 0.2 ml of 3.8% Na Citrate. Blood is centrifuged at 250×g for 6 minutes and the platelet rich plasma (PRP) is aspirated. The remaining blood is centrifuged at 1700×g for 10 minutes and platelet poor plasma (PPP) is aspirated. Platelet aggregation is performed in a Bio-Data PAP-4 aggregometer (Bio-Data Corp., Havertown, Pa.) using collagen (100 μg/ml final concentration; Helena Laboratories, Beaumont, Tex.) as the agonist. Briefly, baseline (100% aggregation) is set using PPP; PRP is incubated at 37° C. for one minute without stirring and one minute with stirring, agonist is added and aggregation is allowed to develop for 4 minutes. Percent aggregation post-dosing is compared to percent aggregation pre-dosing to determine percent inhibition.
Percent inhibition of platelet aggregation at 32 hour post-dosing in
beagle dogs (5 mpk, n = 2)

Compound	inhibition in vivo at 5 mg/kg [%]	% inhibition of platelet aggregation @ 10 hours [%]
CC(C)OC(=O)CCNC(=O)N[C@H]1CCN(c2ccc(C(N)=NOC(N)=O)cc2)C1=O [5(b), N-[[[(3S)-1-[4-[[[(aminocarbonyl)oxy]amino]iminomethyl]phenyl]-2-oxo-3-pyrrolidinyl]amino]carbonyl]-β-alanine 1-methylethyl ester]	64	
NC(=O)ON=C(N)c1ccc(N2CC[C@H](NC(=O)NCCC(=O)OC3CCCCC3)C2=O)cc1 [5(h), N-[[[(3S)-1-[4-[[[(aminocarbonyl)oxy]amino]iminomethyl]phenyl]-2-oxo-3-pyrrolidinyl]amino]carbonyl]-β-alanine cyclohexyl ester]	28	
CN(C)CCN(C)C(=O)ONC(=N)c1ccc(N2CC[C@H](NC(=O)NCCC(=O)O)C2=O)cc1.O.O=C(O)C(F)(F)F.O=C(O)C(F)(F)F [6(a), N-[[[(3S)-1-[4-(1-imino-5,8-dimethyl-4-oxo-3-oxa-2,5,8-triazanon-1-yl)phenyl]-2-oxo-3-pyrrolidinyl]amino]carbonyl]-β-alanine bis(trifluoroacetate) monohydrate]		61
NC(=O)ON=C(N)c1ccc(N2CC[C@H](NC(=O)NCCC(=O)O)C2=O)cc1 [6(d), N-[[[(3S)-1-[4-[[[(aminocarbonyl)oxy]amino]iminomethyl]phenyl]-2-oxo-3-pyrrolidinyl]amino]carbonyl]-β-alanine]		15
N=C(N)c1ccc(N2CC[C@H](NC(=O)NCCC(=O)O)C2=O)cc1 [6(e), N-[[[(3S)-1-[4-(Aminoiminomethyl)phenyl]-2-oxo-3-pyrrolidinyl]amino]-carbonyl]-β-alanine trifluoroacetate, reference compound]		28
COC(=O)CCNC(=O)N[C@H]1CCN(c2ccc(C(N)=NO)cc2)C1=O [Example 1(a), N-[[[(3S)-1-[4-[(hydroxyamino)iminomethyl]phenyl]-2-oxo-3-pyrrolidinyl]amino]carbonyl]-β-alanine methyl ester]	85	
CCOC(=O)CCNC(=O)N[C@H]1CCN(c2ccc(C(N)=NO)cc2)C1=O [Example 1, N-[[[(3S)-1-[4-[(hydroxyamino)iminomethyl]phenyl]-2-oxo-3-pyrrolidinyl]amino]carbonyl]-β-alanine ethyl ester monohydrochloride]	95	
COC(=O)CCNC(=O)N[C@H]1CCN(c2ccc(C(=N)NOC(=O)N3CCN(C)CC3)cc2)C1=O [Example 3, N-[[[(3S)-1-[4-[imino[[[(4-methyl-1-piperazinyl)-carbonyl]oxy]amino]-methyl]phenyl]-2-oxo-3-pyrrolidinyl]amino]carbonyl]-β-alanine methyl ester]	66	
COC(=O)CCNC(=O)N[C@H]1CCN(c2ccc(C(N)=NOC(=O)N(C)C)cc2)C1=O [Example 4, N-[[[(3S)-1-[4-[[[[(dimethylamino)carbonyl]oxy]amino]iminomethyl]phenyl]-2-oxo-3-pyrrolidinyl]amino]carbonyl]-β-alanine methyl ester]	68	
COC(=O)CCNC(=O)N[C@H]1CCN(c2ccc(C(N)=NOC(N)=O)cc2)C1=O [Example 5, N-[[[(3S)-1-[4-[[[(aminocarbonyl)oxy]amino]iminomethyl]-phenyl]-2-oxo-3-pyrrolidinyl]amino]carbonyl]-β-alanine methyl ester]	89	
CCOC(=O)CCNC(=O)N[C@H]1CCN(c2ccc(C(=N)NC(=O)c3ccccc3)cc2)C1=O [Example 7, N-[[[3(S)-1-[4-[imino[(phenylcarbonyl)amino]methyl]phenyl]-2-oxo-3-pyrrolidinyl]amino]carbonyl]-β-alanine ethyl ester]	53	
CCOC(=O)CCNC(=O)N[C@H]1CCN(c2ccc(C(N)=NOC(C)=O)cc2)C1=O [Example 8, N-[[[(3S)-1-[4-[[(acetyloxy)amino]iminomethyl]phenyl]-2-oxo-3-pyrrolidinyl]amino]carbonyl]-β-alanine ethyl ester]	57	
CCOC(=O)CCNC(=O)N[C@H]1CCN(c2ccc(C(N)=NOC(=O)OCC)cc2)C1=O [Example 9, N-[[[(3S)-1-[4-[[[(ethoxycarbonyl)oxy]amino]iminomethyl]phenyl]-2-oxo-3-pyrrolidinyl]amino]carbonyl]-β-alanine ethyl ester]	90	
CCOC(=O)CCNC(=O)N[C@H]1CCN(c2ccc(C(=N)NOC(=O)OCC(Cl)(Cl)Cl)cc2)C1=O [Example 10, N-[[[(3S)-1-[4-[imino[[[(2,2,2-trichloroethoxy)carbonyl]oxy]amino]methyl]phenyl]-2-oxo-3-pyrrolidinyl]amino]carbonyl]-β-alanine ethyl ester]	84	
